Laboratory results reported in ChEMBL document CHEMBL1157642, “2-Amino-5-benzoyl-4-phenylthiazoles: Development of potent and selective adenosine A1 receptor antagonists” (Bioorg Med Chem, 2010).
Changes are numbered by the printed parent chain.

Assays:
[1] = biological target: T1, Adenosine receptor A3 (Homo sapiens) (UniProt P0DMS8); assay: Displacement of [3H]PSB-11 from human adenosine A3 receptor expressed in CHO cells at 1 uM; assay type: cell-based
T1 sequence (whole entry): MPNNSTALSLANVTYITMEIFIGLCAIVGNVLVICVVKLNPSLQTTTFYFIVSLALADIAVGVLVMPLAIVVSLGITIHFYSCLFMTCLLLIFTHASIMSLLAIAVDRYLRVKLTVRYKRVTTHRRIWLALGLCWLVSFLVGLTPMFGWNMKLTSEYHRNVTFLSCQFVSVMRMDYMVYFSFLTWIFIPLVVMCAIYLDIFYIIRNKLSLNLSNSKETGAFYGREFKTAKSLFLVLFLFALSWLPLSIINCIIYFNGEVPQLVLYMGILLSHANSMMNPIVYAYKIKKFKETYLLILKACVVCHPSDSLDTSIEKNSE

Adenosine receptor A2a [2] = biological target: T2, Adenosine receptor A2a (Rattus norvegicus, UniProt P30543)
Adenosine receptor A2b = biological target: T3, Adenosine receptor A2b (Homo sapiens, UniProt P29275); assay: Displacement of [3H]PSB-603 from human adenosine A2B receptor expressed in CHO cells; assay type: cell-based
T3 sequence (P29275 whole entry): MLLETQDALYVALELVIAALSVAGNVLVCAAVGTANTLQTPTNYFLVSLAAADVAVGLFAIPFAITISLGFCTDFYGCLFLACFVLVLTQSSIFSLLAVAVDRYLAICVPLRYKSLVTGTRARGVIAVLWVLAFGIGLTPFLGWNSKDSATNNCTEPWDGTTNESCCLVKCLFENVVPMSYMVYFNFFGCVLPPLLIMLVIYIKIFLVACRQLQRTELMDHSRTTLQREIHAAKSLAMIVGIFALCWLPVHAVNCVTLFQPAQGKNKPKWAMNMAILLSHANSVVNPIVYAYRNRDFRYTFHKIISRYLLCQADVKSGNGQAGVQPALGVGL

Adenosine receptor A3 [3] = biological target: T4, Adenosine receptor A3 (Homo sapiens, UniProt P0DMS8); assay: biochemical
T4 sequence (P0DMS8 whole entry): T1 sequence (whole entry)

[4] = biological target: T5, Adenosine receptor A2b (Homo sapiens) (UniProt P29275); assay: Displacement of [3H]PSB-603 from human adenosine A2B receptor expressed in CHO cells at 1 uM; assay type: cell-based
T5 sequence (whole entry): T3 sequence (P29275 whole entry)

[5] = biological target: T6, Adenosine receptor A1 (Rattus norvegicus) (UniProt P25099); assay: Displacement of [3H]CCPA from adenosine A1 receptor in rat brain cortex membrane at 1 uM; assay type: cell membranes
T6 sequence (whole entry): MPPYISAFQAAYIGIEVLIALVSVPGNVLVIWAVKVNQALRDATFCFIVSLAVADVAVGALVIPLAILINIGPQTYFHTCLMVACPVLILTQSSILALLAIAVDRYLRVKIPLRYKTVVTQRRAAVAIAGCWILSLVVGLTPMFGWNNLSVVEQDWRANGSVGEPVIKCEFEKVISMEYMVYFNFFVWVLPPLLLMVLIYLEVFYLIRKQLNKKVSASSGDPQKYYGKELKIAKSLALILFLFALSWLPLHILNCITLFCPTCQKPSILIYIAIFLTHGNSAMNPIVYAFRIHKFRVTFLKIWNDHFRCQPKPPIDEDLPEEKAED

[6] = biological target: Adenosine receptor A2a (Rattus norvegicus) (UniProt P30543); assay: Displacement of [3H]MSX2 from adenosine A2A receptor in rat brain striatum membrane at 1 uM; assay type: cell membranes
Adenosine receptor A1 [7] = biological target: T7, Adenosine receptor A1 (Rattus norvegicus, UniProt P25099)
T7 sequence (P25099 whole entry): T6 sequence (whole entry)

Adenosine receptor A2a [8] = biological target: T2, Adenosine receptor A2a; remark: listed apart in the source
Adenosine receptor A2a [9] = biological target: Adenosine receptor A2a (Cavia porcellus, UniProt P46616); assay: Binding affinity to guinea pig adenosine A2A receptor
[10] = biological target: T6, Adenosine receptor A1 (Rattus norvegicus); assay: Potency shift, ratio of IC50 for rat brain cortical membrane adenosine A1 receptor in presence of 100 uM GTP to C50 for rat brain cortical membrane adenosine A1 receptor in absence of 100 uM GTP
Adenosine receptor A1 [11] = biological target: T7, Adenosine receptor A1; assay: Displacement of [3H]DPCPX from adenosine A1 receptor in rat brain cortical membrane in absence of 100 uM GTP; assay type: cell membranes
Adenosine receptor A2a [12] = biological target: Adenosine receptor A2a (Homo sapiens, UniProt P29274); assay: Displacement of [3H]MSX2 from human adenosine A2A receptor expressed in CHO cells; assay type: cell-based
Adenosine receptor A1 [13] = biological target: T8, Adenosine receptor A1 (Homo sapiens, UniProt P30542); assay: Displacement of [3H]CCPA from human adenosine A1 receptor expressed in CHO cells; assay type: cell-based
T8 sequence (P30542 whole entry): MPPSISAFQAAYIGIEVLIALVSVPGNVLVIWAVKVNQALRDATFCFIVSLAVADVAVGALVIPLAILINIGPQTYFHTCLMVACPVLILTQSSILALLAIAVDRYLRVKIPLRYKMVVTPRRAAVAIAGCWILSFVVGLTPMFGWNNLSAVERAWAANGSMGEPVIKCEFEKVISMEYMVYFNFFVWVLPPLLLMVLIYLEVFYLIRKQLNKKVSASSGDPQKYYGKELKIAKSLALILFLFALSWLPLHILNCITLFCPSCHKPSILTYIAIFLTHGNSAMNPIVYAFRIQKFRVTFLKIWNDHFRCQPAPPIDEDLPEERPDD

Adenosine receptor A1 [14] = biological target: T7, Adenosine receptor A1; assay: Displacement of [3H]DPCPX from adenosine A1 receptor in rat brain cortical membrane in presence of 100 uM GTP; assay type: cell membranes
Adenosine receptor A1 [15] = biological target: T7, Adenosine receptor A1; assay: Binding affinity to rat adenosine A1 receptor
Adenosine receptor A1 [16] = biological target: T8, Adenosine receptor A1; assay: Binding affinity to human adenosine A1 receptor
Adenosine receptor A3 [17] = biological target: T4, Adenosine receptor A3; assay: Binding affinity to human adenosine A3 receptor
Adenosine receptor A1 [18] = biological target: T9, Adenosine receptor A1 (Mus musculus, UniProt Q60612); assay: Binding affinity to mouse adenosine A1 receptor
T9 sequence (Q60612 whole entry): T6 sequence (whole entry) with V151E, D155A, R157I, D316E, L319I, E325D

Adenosine receptor A1 [19] = biological target: T10, Adenosine receptor A1 (Cavia porcellus, UniProt P47745); assay: Binding affinity to guinea pig adenosine A1 receptor
T10 sequence (P47745 whole entry): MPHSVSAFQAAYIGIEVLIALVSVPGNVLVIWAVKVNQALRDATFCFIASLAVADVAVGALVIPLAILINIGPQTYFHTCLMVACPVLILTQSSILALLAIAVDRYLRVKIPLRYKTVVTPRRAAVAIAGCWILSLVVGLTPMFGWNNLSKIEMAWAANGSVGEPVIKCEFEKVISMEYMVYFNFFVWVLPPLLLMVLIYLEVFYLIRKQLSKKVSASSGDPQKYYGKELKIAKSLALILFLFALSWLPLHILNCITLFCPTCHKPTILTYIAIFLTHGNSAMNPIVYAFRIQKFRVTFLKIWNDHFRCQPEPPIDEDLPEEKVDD

Chain of Adenosine receptor A2a (Rattus norvegicus) (P30543 whole entry): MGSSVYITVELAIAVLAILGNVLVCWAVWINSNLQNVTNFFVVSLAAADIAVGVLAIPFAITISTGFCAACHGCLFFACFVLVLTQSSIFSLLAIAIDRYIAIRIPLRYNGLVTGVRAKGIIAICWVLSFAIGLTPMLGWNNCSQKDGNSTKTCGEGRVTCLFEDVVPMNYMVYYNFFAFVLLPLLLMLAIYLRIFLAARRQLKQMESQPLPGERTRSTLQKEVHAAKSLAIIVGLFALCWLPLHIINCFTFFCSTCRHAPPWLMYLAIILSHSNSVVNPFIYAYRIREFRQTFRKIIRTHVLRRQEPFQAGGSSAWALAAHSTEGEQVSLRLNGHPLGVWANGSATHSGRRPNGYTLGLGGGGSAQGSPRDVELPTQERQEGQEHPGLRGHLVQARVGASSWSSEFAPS
T2 sequence (P30543 whole entry): as above
Chain of Adenosine receptor A2a (Cavia porcellus, UniProt P46616) (P46616 whole entry): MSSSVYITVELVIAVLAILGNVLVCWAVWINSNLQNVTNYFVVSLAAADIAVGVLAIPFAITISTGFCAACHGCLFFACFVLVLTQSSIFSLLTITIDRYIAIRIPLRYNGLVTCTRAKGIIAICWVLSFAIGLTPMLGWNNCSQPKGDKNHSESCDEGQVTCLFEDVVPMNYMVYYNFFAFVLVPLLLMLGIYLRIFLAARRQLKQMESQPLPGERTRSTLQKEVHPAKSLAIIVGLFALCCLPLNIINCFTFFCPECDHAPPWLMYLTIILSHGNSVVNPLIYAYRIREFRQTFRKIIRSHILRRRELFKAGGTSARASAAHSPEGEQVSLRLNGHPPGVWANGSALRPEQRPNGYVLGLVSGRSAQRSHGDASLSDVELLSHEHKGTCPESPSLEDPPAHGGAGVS
Chain of Adenosine receptor A2a (Homo sapiens, UniProt P29274) (P29274 whole entry): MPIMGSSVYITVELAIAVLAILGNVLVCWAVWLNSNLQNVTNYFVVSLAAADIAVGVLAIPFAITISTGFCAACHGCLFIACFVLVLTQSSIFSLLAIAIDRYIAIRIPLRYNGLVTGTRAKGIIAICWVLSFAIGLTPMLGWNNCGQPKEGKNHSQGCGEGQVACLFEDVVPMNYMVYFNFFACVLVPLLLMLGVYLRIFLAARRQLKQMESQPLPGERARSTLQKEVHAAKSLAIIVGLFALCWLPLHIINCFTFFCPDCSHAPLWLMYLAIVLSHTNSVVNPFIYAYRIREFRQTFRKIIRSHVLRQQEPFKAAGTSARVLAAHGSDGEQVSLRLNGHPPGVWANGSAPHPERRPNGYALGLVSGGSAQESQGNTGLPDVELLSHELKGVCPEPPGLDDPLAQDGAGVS

inhibition [1] [%] | Ki (Adenosine receptor A2a [2]) [µM] | Ki (Adenosine receptor A2b) [µM] | Ki (Adenosine receptor A3 [3]) [µM] | inhibition [4] [%] | inhibition [5] [%] | inhibition [6] [%] | Ki (Adenosine receptor A1 [7]) [µM] | Compound | also measured
< 30 | > 1 | > 1 | > 1 | < 30 | < 30 | < 30 | > 1 | CNc1nc(-c2ccccc2)c(C(=O)c2ccc(OC)cc2)s1 | 
< 30 | > 1 | > 1 | > 1 | < 30 | < 30 | < 30 | > 1 | CNc1nc(-c2ccccc2)c(C(=O)c2ccccc2)s1 | 
 |  |  |  |  |  |  |  | CCCn1c(=O)c2[nH]c(C34CC5CC(CC3C5)C4)nc2n(CCC)c1=O [ROLOFYLLINE] | Ki (Adenosine receptor A2a [8]): 0.17 µM; Ki (Adenosine receptor A2a [9]): 0.23 µM
< 30 |  |  |  | 39 | < 30 | < 30 |  | COc1ccc(C(=O)c2sc(Nc3ccccc3)nc2-c2ccccc2)cc1 | 
 | > 1 | > 1 | 0.487 | < 30 | 41 | < 30 | 1 | CCOC(=O)Nc1nc(-c2ccccc2)c(C(=O)c2ccc(Cl)cc2)s1 | 
 | 1.84 | > 1 | 0.0988 | < 30 |  |  | 0.0699 | CCOC(=O)Nc1nc(-c2ccccc2)c(C(=O)c2ccc(OC)cc2)s1 | 
< 30 | > 1 | > 1 | > 1 | < 30 | < 30 | < 30 | > 1 | Cc1ccc(C(=O)c2sc(Nc3ccccc3)nc2-c2ccccc2)cc1 | 
< 30 | > 1 | > 1 | > 1 | 40 | < 30 | < 30 | > 1 | Cc1ccc(C(=O)Nc2nc(-c3ccccc3)c(C(=O)c3ccccc3)s2)cc1 | 
 | > 1 | > 1 | 0.619 | < 30 |  | < 30 | 0.012 | O=C(Nc1nc(-c2ccccc2)c(C(=O)c2ccc(Cl)cc2)s1)c1ccco1 | 
 | > 1 | > 1 | 2.16 | < 30 |  | < 30 | 0.00483 | Cc1ccc(C(=O)c2sc(NC(=O)c3ccccc3)nc2-c2ccccc2)cc1 | Ratio IC50 [10]: 0.99; IC50 (Adenosine receptor A1 [11]): 0.0221 µM; Ki (Adenosine receptor A2a [12]): 6.25 µM; Ki (Adenosine receptor A1 [13]): 0.0574 µM; IC50 (Adenosine receptor A1 [14]): 0.0223 µM
 |  |  |  |  |  |  |  | OC1CCC(Nc2nc(-c3ccccc3)nc3[nH]ccc23)CC1 (centres undefined) [DERENOFYLLINE] | Ki (Adenosine receptor A1 [15]): 0.00251 µM; Ki (Adenosine receptor A2a [8]): 0.501 µM; Ki (Adenosine receptor A1 [16]): 0.001 µM; Ki (Adenosine receptor A3 [17]): 0.2 µM
< 30 | > 1 | > 1 | > 1 | < 30 | < 30 | < 30 | > 1 | Cc1ccc(C(=O)Nc2nc(-c3ccccc3)c(C(=O)c3ccc(Cl)cc3)s2)cc1 | 
< 30 | > 1 | > 1 | > 1 | < 30 | < 30 | < 30 | > 1 | CS(=O)(=O)c1ccc(C(=O)c2sc(Nc3ccccc3)nc2-c2ccccc2)cc1 | 
 |  |  |  |  |  |  |  | CCCn1c(=O)c2[nH]c(C34CCC(CCC(=O)O)(CC3)CC4)nc2n(CCC)c1=O [TONAPOFYLLINE] | Ki (Adenosine receptor A1 [15]): 0.0013 µM; Ki (Adenosine receptor A2a [8]): 2.44 µM; Ki (Adenosine receptor A3 [17]): 10 µM
< 30 | > 1 | > 1 | > 1 | < 30 | < 30 | < 30 | > 1 | CNc1nc(-c2ccccc2)c(C(=O)c2ccc(Cl)cc2)s1 | 
 |  |  |  |  |  |  |  | O=C(c1ccccc1)c1sc(NCCc2cccs2)nc1-c1ccco1 | Ki (Adenosine receptor A1 [16]): > 6.7 µM
 |  |  |  |  |  |  |  | O=C(O)CCCn1nc(-c2c(-c3ccccc3)nn3ccccc23)ccc1=O | Ki (Adenosine receptor A1 [18]): 0.0102 µM; Ki (Adenosine receptor A2a [8]): 1.2 µM; Ki (Adenosine receptor A1 [16]): 0.012 µM; Ki (Adenosine receptor A1 [19]): 0.01 µM
 | 0.662 | > 1 | 0.208 | < 30 |  |  | 0.00577 | O=C(Nc1nc(-c2ccccc2)c(C(=O)c2ccccc2)s1)c1ccco1 | Ratio IC50 [10]: 1.2; IC50 (Adenosine receptor A1 [11]): 0.0254 µM; Ki (Adenosine receptor A2a [12]): 0.348 µM; Ki (Adenosine receptor A1 [13]): 0.0543 µM; IC50 (Adenosine receptor A1 [14]): 0.0288 µM
< 30 | > 1 | > 1 | > 1 | < 30 | < 30 | < 30 | > 1 | CS(=O)(=O)c1ccc(C(=O)c2sc(NC(=O)c3ccccc3)nc2-c2ccccc2)cc1 | 
 |  |  |  |  |  |  |  | O=C(/C=C/c1c(-c2ccccc2)nn2ccccc12)N1CCCC[C@@H]1CCO [FK453] | Ki (Adenosine receptor A1 [18]): 0.00055 µM; IC50 (Adenosine receptor A1 [19]): 0.00056 µM; IC50 (Adenosine receptor A2a [9]): 1.18 µM
 | 1.64 | 0.391 | 0.206 |  |  |  | 0.0729 | CCOC(=O)Nc1nc(-c2ccccc2)c(C(=O)c2ccccc2)s1 | 
 | 3.03 | > 1 | 0.354 | < 30 |  |  | 0.00951 | O=C(Nc1nc(-c2ccccc2)c(C(=O)c2ccccc2)s1)c1ccccc1 | 
< 30 | > 1 | 0.337 | > 1 |  | < 30 | < 30 | > 1 | O=C(c1ccccc1)c1sc(Nc2ccccc2)nc1-c1ccccc1 | 
 | 2.47 |  | 3.25 |  |  |  |  | OC[C@H]1O[C@@H](n2cnc3c(NC4CCCC4)ncnc32)[C@H](O)[C@@H]1O [N6-CYCLOPENTYLADENOSINE] | 
56 | > 1 | > 1 | 1 | < 30 |  | < 30 | 0.00715 | COc1ccc(C(=O)c2sc(NC(=O)c3ccccc3)nc2-c2ccccc2)cc1 | 
